Source: patent US20250137054A1, “COMPOSITION AND METHOD FOR EVALUATING RESPONSIVENESS OF EDARAVONE” (MITSUBISHI TANABE PHARMA CORPORATION, priority 2022, published 2025)

System: disease model cells, TDP-43 (+)
Test: Evaluation of cell protection using chromogenic substrate (2), without EA
Assay type: cell-based, rat
Conditions: Eda 50 or 100 μmol/L 96 h, no EA; vs Comparative Example 2 (FIG. 12)
From the text: Using the differentiated cell line prepared using the method of Example 1 (indicated as “TDP-43 (−)” in FIG. 12), an Eda-unexposed group (Reference Example 2) and a 96-hour Eda-exposed group (final concentration 100 μmol/L) (Reference Example 3) were each prepared.
Further, using the disease model cells prepared using the method of Example 1 (indicated as “TDP-43 (+)” in FIG. 12), an Eda-unexposed group (Comparative Example 2) and 96-hour Eda-exposed groups (final concentration 50 or 100 μmol/L) (Examples 5-1 and 5-2) were each prepared.
All of these were performed without containing EA.
After that, similar to Example 3-1 and the like, a cell toxicity measurement kit was used to expose the cells in each group according to a product protocol, and an amount of chromogenic substrate produced was measured by absorbance at 450 nm.
The data shown in FIG. 12 are all expressed as mean±standard error of the mean (SEM, n=4 for each). In FIG. 12, the symbol “##” indicates a statistically significant difference of p<0.01 compared to Comparative Example 2. In FIG. 12, the symbol “**” indicates a statistically significant difference of p<0.05 compared to Comparative Example 2. In FIG. 12, the symbol “$” indicates a statistically significant difference of p<0.05 compared to Reference Example 2 (all determined by Student t-test).

With `CC1=NN(c2ccccc2)C(=O)C1` [edaravone, 5-methyl-2-phenyl-2,4-dihydro-3H-pyrazol-3-one] the “number of viable cells (absorbance at 450 nm)” value was “higher number of viable cells”.
